{"source": "patent US6949636B2", "about": "“Intron/exon structure of the human and mouse β3-adrenergic receptor genes” (Centre National de la Recherche Scientifique, priority 1989, dated 2005)", "origin": "cited, not measured here", "key": {"β3-adrenergic receptor": {"biological_target": "β3-adrenergic receptor (Homo sapiens, UniProt P13945)", "sequence (P13945 1-402 limits assumed)": "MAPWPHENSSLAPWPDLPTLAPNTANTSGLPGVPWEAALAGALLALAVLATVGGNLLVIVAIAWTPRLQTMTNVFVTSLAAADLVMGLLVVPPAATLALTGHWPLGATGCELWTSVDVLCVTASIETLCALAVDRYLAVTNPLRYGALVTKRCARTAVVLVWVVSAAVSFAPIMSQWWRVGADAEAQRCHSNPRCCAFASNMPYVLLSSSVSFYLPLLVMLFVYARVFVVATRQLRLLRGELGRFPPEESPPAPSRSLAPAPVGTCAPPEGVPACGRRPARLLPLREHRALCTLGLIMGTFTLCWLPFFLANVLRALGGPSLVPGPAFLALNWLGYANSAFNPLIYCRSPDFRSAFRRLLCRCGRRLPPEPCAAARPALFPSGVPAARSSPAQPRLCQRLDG", "settings": "activity increases in the order salbutamol, BRL 28410, BRL 37344, (1)-isoproterenol; from earlier filings"}, "[1]": {"biological_target": "mouse β3-adrenergic receptor (Mus musculus, UniProt P25962)", "sequence (P25962 1-388 limits assumed)": "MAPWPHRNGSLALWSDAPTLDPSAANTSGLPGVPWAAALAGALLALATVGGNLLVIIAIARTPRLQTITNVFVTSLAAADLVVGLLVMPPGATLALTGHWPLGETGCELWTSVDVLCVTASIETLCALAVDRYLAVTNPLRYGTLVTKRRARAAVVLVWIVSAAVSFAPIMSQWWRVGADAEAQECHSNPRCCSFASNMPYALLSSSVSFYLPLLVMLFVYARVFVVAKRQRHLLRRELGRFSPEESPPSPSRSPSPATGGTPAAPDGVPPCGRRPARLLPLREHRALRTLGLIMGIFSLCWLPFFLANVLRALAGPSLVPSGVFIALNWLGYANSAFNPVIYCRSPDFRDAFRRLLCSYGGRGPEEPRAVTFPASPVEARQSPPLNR", "settings": "background statement, earlier filing / Nahmias et al."}}}
{"smiles": "C[C@H](Cc1ccc(C(=O)O)cc1)NC[C@H](O)c1ccccc1", "note": "[BRL 28410]", "values": [{"measurement": "activating adenylate cyclase in the presence of an agonist", "setting": "β3-adrenergic receptor", "value": "activating adenylate cyclase"}]}
{"smiles": "CC(C)(C)NCC(O)COc1cccc2[nH]c(=O)[nH]c12", "note": "(centres unmarked) [CGP 12177A]", "values": [{"measurement": "activation of mouse β3-adrenergic receptor", "setting": "[1]", "value": "can be activated"}]}
{"smiles": "C=CCOc1ccccc1OCC(O)CNC(C)C", "note": "(centres unmarked) [oxprenolol]", "values": [{"measurement": "activation of mouse β3-adrenergic receptor", "setting": "[1]", "value": "can be activated"}]}
{"smiles": "CC(C)NCC(O)COc1cccc2[nH]ccc12", "note": "(centres unmarked) [pindolol]", "values": [{"measurement": "activation of mouse β3-adrenergic receptor", "setting": "[1]", "value": "can be activated"}]}
{"smiles": "CC(C)(C)NCC(O)c1ccc(O)c(CO)c1", "note": "(centres unmarked) [salbutamol]", "values": [{"measurement": "activating adenylate cyclase in the presence of an agonist", "setting": "β3-adrenergic receptor", "value": "activating adenylate cyclase"}]}
